# What was measured:
# Type in all cases: in vivo
# Alopecurus myosuroides = experiment: Pre-emergence herbicidal effect; settings: 320 g/ha, scored visually after 3 weeks vs untreated controls, 100% = plants have died
# From the text: (§1) Seeds of monocotyledonous and dicotyledonous weed plants and crop plants are laid out in sandy loam soil in wood-fibre pots and covered with soil. The compounds of the invention, formulated in the form of wettable powders (WP) or as emulsion concentrates (EC), are then applied to the surface of the covering soil as aqueous suspension or emulsion at a water application rate equating to 600 to 800 L/ha with addition of 0.2% wetting agent. After the treatment, the pots are placed in a greenhouse and kept under good growth conditions for the trial plants. The damage to the test plants is scored visually after a test period of 3 weeks by comparison with untreated controls (herbicidal activity in percent (%): 100% activity=the plants have died, 0% activity=like control plants). ALOMY: Alopecurus myosuroides
# Lolium multiflorum = experiment: Pre-emergence herbicidal effect; settings: 320 g/ha, scored visually after 3 weeks vs untreated controls, 100% = plants have died
# From the text: as §1, with “LOLMU: Lolium multiflorum” for “ALOMY: Alopecurus myosuroides”
# Avena fatua [1] = experiment: Post-emergence herbicidal effect; settings: one-leaf stage, 320 g/ha, assessed visually after about 3 weeks, 100% = plants have died
# Description: (§2) AVEFA: Avena fatua Seeds of monocotyledonous and dicotyledonous weed and crop plants are laid out in sandy loam soil in wood-fibre pots, covered with soil and cultivated in a greenhouse under good growth conditions. 2 to 3 weeks after sowing, the test plants are treated at the one-leaf stage. The compounds of the invention, formulated in the form of wettable powders (WP) or as emulsion concentrates (EC), are then sprayed onto the green parts of the plants as aqueous suspension or emulsion at a water application rate equating to 600 to 800 L/ha with addition of 0.2% wetting agent. After the test plants have been left to stand in the greenhouse under optimal growth conditions for about 3 weeks, the action of the preparations is assessed visually in comparison to untreated controls (herbicidal action in percent (%): 100% activity=the plants have died, 0% activity=like control plants).
# Echinochloa crus-galli [2] = experiment: Post-emergence herbicidal effect; settings: one-leaf stage, 320 g/ha, assessed visually after about 3 weeks, 100% = plants have died
# Description: as §2, with “ECHCG: Echinochloa crus-galli” for “AVEFA: Avena fatua”
# Setaria viridis [3] = experiment: Post-emergence herbicidal effect; settings: one-leaf stage, 320 g/ha, assessed visually after about 3 weeks, 100% = plants have died
# Description: as §2, with “SETVI: Setaria viridis” for “AVEFA: Avena fatua”
# Avena fatua [4] = experiment: Pre-emergence herbicidal effect; settings: 320 g/ha, scored visually after 3 weeks vs untreated controls, 100% = plants have died
# From the text: as §1, with “AVEFA: Avena fatua” for “ALOMY: Alopecurus myosuroides”
# Echinochloa crus-galli [5] = experiment: Pre-emergence herbicidal effect; settings: 320 g/ha, scored visually after 3 weeks vs untreated controls, 100% = plants have died
# From the text: as §1, with “ECHCG: Echinochloa crus-galli” for “ALOMY: Alopecurus myosuroides”
# Setaria viridis [6] = experiment: Pre-emergence herbicidal effect; settings: 320 g/ha, scored visually after 3 weeks vs untreated controls, 100% = plants have died
# From the text: as §1, with “SETVI: Setaria viridis” for “ALOMY: Alopecurus myosuroides”
Compound,Pre-emergence action ALOMY (herbicidal activity in percent) (Alopecurus myosuroides) [%],Pre-emergence action LOLMU (herbicidal activity in percent) (Lolium multiflorum) [%],Post-emergence effectiveness AVEFA (herbicidal action in percent) (Avena fatua [1]) [%],Post-emergence effectiveness ECHCG (herbicidal action in percent) (Echinochloa crus-galli [2]) [%],Post-emergence effectiveness SETVI (herbicidal action in percent) (Setaria viridis [3]) [%],Pre-emergence action AVEFA (herbicidal activity in percent) (Avena fatua [4]) [%],Pre-emergence action ECHCG (herbicidal activity in percent) (Echinochloa crus-galli [5]) [%],Pre-emergence action SETVI (herbicidal activity in percent) (Setaria viridis [6]) [%]
COc1cc(C)cc(Cl)c1C1=C(O)C2CCOCCN2C1=O (centres unmarked) [Ia-1-8],90,100,,,,,,
Cc1cc(C)c(C2=C(O)C3=CCOCCN3C2=O)c(C)c1 [Ia-3-1],,,80,90,,,,
CCc1cc(C)cc(C)c1C1=C(O)C2=CCOCCN2C1=O [Ia-3-2],,,100,100,,,,
CCc1cc(C)cc(CC)c1C1=C(O)C2=CCOCCN2C1=O [Ia-3-3],80,100,,100,100,,,
CCc1cc(C)cc(CC)c1C1=C(OC(=O)OCCOC)C2CCOCCN2C1=O (centres unmarked) [Ib-1-5],100,100,,,,100,100,100
COC(=O)OC1=C(c2c(Cl)cc(C)cc2OC)C(=O)N2CCOCCC12 (centres unmarked) [Ib-1-21],100,100,,,,90,100,100
CCOC(=O)OC1=C(c2c(Cl)cc(C)cc2OC)C(=O)N2CCOCCC12 (centres unmarked) [Ib-1-22],90,100,,,,100,100,100
COc1cc(C)cc(Cl)c1C1=C(OC(=O)C(C)(C)C)C2CCOCCN2C1=O (centres unmarked) [Ib-1-23],100,100,,,,90,100,100
COc1cc(C)cc(Cl)c1C1=C(OC(C)=O)C2CCOCCN2C1=O (centres unmarked) [Ib-1-24],90,100,,,,90,100,100
CCOC(=O)OC1=C(c2ccc(C)cc2OC)C(=O)N2CCOCCC12 (centres unmarked) [Ib-1-26],90,90,,,,,,
CC(=O)OC1=C(c2c(C)cc(C)cc2C)C(=O)N2CCCOCC12 (centres unmarked) [Ib-2-1],,,,100,100,,,
COC(=O)OC1=C(c2c(C)cc(C)cc2C)C(=O)N2CCCOCC12 (centres unmarked) [Ib-2-2],,,,90,90,,,
CCOC(=O)OC1=C(c2c(C)cc(C)cc2C)C(=O)N2CCCOCC12 (centres unmarked) [Ib-2-3],,,,90,90,,,
Cc1cc(C)c(C2=C(OC(=O)C(C)(C)C)C3COCCCN3C2=O)c(C)c1 (centres unmarked) [Ib-2-4],,,,90,100,,,
CCc1cc(C)cc(CC)c1C1=C(OC(=O)OC)C2COCCCN2C1=O (centres unmarked) [Ib-2-5],,,,100,100,,,
CCOC(=O)OC1=C(c2c(CC)cc(C)cc2CC)C(=O)N2CCCOCC12 (centres unmarked) [Ib-2-6],,,,100,100,,,
CCOC(=O)OC1=C(c2c(CC)cc(C)cc2CC)C(=O)N2CCOCC=C12 [Ib-3-2],,,,80,90,,,
CCc1cc(C)cc(CC)c1C1=C(OC(=O)C(C)(C)C)C2=CCOCCN2C1=O [Ib-3-3],,,,90,100,,,
CCc1cc(C)cc(C)c1C1=C(OC(=O)OC)C2=CCOCCN2C1=O [Ib-3-5],100,80,,90,90,,,
CCOC(=O)OC1=C(c2c(C)cc(C)cc2CC)C(=O)N2CCOCC=C12 [Ib-3-6],,,,90,90,,,
CCc1cc(C)cc(C)c1C1=C(OC(=O)C(C)(C)C)C2=CCOCCN2C1=O [Ib-3-7],,,,90,100,,,
CCOC(=O)OC1=C(c2c(CC)cc(Cl)cc2OC)C(=O)N2CCOCC=C12 [Ib-3-9],,,,90,100,,,
CCOC(=O)OC1=C(c2c(C)cc(Br)cc2C)C(=O)N2CCOCC=C12 [Ib-3-11],,,,80,90,,,
COc1cc(C)cc(Cl)c1C1=C(OC(C)=O)C2=CCOCCN2C1=O [Ib-3-13],100,100,,,,90,100,100
COc1cc(C)cc(Cl)c1C1=C(OC(=O)C(C)(C)C)C2=CCOCCN2C1=O [Ib-3-16],90,90,,,,,80,90

# Reference: US20190119298A1, “FUSED 3-PHENYLTETRAMIC ACID DERIVATIVES HAVING HERBICIDAL ACTION” (Bayer CropScience Aktiengesellschaft, priority 2016, published 2019)
